Reference: US7115753B2, “Triaryl cation antibiotics from environmental DNA” (Wisconsin Alumni Research Foundation, priority 2000, dated 2006)
Where two headings read alike, the source gives them in different places. Marks after values point to notes of the source that are not given here.

Tests used:
Staphylococcus aureus = assay: Minimum inhibitory concentration (MIC) in broth culture; assay type: cell-based
Procedure: (§1) Overnight cultures were prepared as for the plate inhibition assays. Culture optical densities (O.D.) were normalized to 0.15 (150 μl path length) by performing 1:1 serial dilutions (150 μl transfer into 150 μl diluent) in a 96 well microtiter plate. Inoculum cell concentrations (colony forming units/ml) were subsequently determined by performing 1:5 serial dilution series (50 μl transfer into 200 μl diluent) in a second microtiter plate. Three dilutions were plated ([…]) by mixing 50 μl of a given dilution into 20 ml of cooled BHI/YE medium and quickly pouring into a petri plate. Test compounds, both natural and synthetic, were dissolved in DMSO (2.0 mg/ml) and diluted into BHI/YE medium to a concentration of 106 μg/ml (5.35% v/v DMSO). Samples of each of the test compounds (150 μl each) were added to 3 separate wells, each containing 150 μl of BHI/YE medium (no DMSO). […] Three plates were prepared for each test organism (n=3 […]=9 per compound, per organism). Additional wells were included in duplicate on each plate for color subtraction, +/-DMSO, and minus compound controls (n=2 […]=6 per control, per organism). Ten μl of normalized inoculum was added per well. Absorbance at 590 nm was read using a […] Victor® Microtiter plate reader; double circular mixing was performed for 10 seconds prior to reading at times 0, 30 and 60 hours. The plates were statically incubated at 28° C. when not being read. Absorbance values were imported into Microsoft Excel® and analyzed graphically.

Streptococcus pyogenes = assay: as above; assay type: cell-based; details: synthetic compound
Procedure: as §1

Salmonella typhimurium = assay: as above; assay type: cell-based; details: synthetic compound
Procedure: as §1

Erwinia herbicola = assay: as above; assay type: cell-based; details: synthetic compound
Procedure: as §1

Bacillus subtilis = assay: as above; assay type: cell-based; details: synthetic compound
Procedure: as §1

[1] = system: Salmonella typhimurium LT2; assay: Zone of inhibition assay; assay type: cell-based; details: 10 μl drop of 250 μg/ml in DMSO
[2] = system: Pseudomonas aeruginosa 9020; assay: Zone of inhibition assay; assay type: cell-based; design: key: (+) 2 to 13 mm zone; (+/−) 1 mm zone; (−) no zone of inhibition; details: 10 μl drop of 250 μg/ml in DMSO
[3] = system: Streptococcus pyogenes 8P01; assay: Zone of inhibition assay; assay type: cell-based; details: 10 μl drop of 250 μg/ml in DMSO
[4] = system: Enterococcus faecalis 4025; assay: Zone of inhibition assay; assay type: cell-based; design: key: (+) 2 to 13 mm zone; (+/−) 1 mm zone; (−) no zone of inhibition; details: 10 μl drop of 250 μg/ml in DMSO
[5] = system: Streptomyces griseus 6501; assay: Zone of inhibition assay; assay type: cell-based; details: 10 μl drop of 250 μg/ml in DMSO
[6] = system: Candida guilliermondii Y001; assay: Zone of inhibition assay; assay type: cell-based; details: 10 μl drop of 250 μg/ml in DMSO
[7] = system: Staphylococcus aureus 3001; assay: Zone of inhibition assay; assay type: cell-based; details: 10 μl drop of 250 μg/ml in DMSO
[8] = system: Fusarium solani (f. sp. glycine) 90.1; assay: Zone of inhibition assay (fungal plug on plate); assay type: cell-based; design: key: (+) 2 to 13 mm zone; (+/−) 1 mm zone; (−) no zone of inhibition; details: DMSO-dissolved compound on plate, 23° C., 7 days
Procedure: (§2) Pythium ultimum (1033) and Fusarium solani f sp. glycine (90.1) were grown on ¼- strength potato dextrose agar (29) at 23° C. Plugs were cut from the fungal lawn using a #5 cork borer and placed onto the center of a fresh plate containing the DMSO-dissolved compounds. The plates were incubated 7 days, or until the organism covered the plate, at 23° C., in the dark.

Pythium ultimum 1033 = assay: Zone of inhibition assay (fungal plug on plate); assay type: cell-based; design: key: (+) 2 to 13 mm zone; (+/−) 1 mm zone; (−) no zone of inhibition; details: DMSO-dissolved compound on plate, 23° C., 7 days
Procedure: as §2

Escherichia coli HS997 = assay: Zone of inhibition assay; assay type: cell-based; details: 10 μl drop of 250 μg/ml in DMSO
[9] = system: B. cereus var. mycoides 1003; assay type: cell-based, Bacillus cereus var. mycoides; details: 10 μl drop of 250 μg/ml in DMSO
Erwinia herbicola IRQ = assay: Zone of inhibition assay; assay type: cell-based; details: 10 μl drop of 250 μg/ml in DMSO

SMILES | Antibiotic activity (zone of inhibition) ([1]; Natural compound) | Antibiotic activity (zone of inhibition) ([1]; Synthetic compound) | Antibiotic activity (zone of inhibition) ([2]; Natural compound) | Antibiotic activity (zone of inhibition) ([2]; Synthetic compound) | Antibiotic activity (zone of inhibition) ([3]; Natural compound) | Antibiotic activity (zone of inhibition) ([3]; Synthetic compound) | Antibiotic activity (zone of inhibition) ([4]; Natural compound) | Antibiotic activity (zone of inhibition) ([4]; Synthetic compound) | Antibiotic activity (zone of inhibition) ([5]; Natural compound) | Antibiotic activity (zone of inhibition) ([5]; Synthetic compound) | Antibiotic activity (zone of inhibition) ([6]; Natural compound) | Antibiotic activity (zone of inhibition) ([6]; Synthetic compound) | Antibiotic activity (zone of inhibition) ([7]; Natural compound) | Antibiotic activity (zone of inhibition) ([7]; Synthetic compound) | Antibiotic activity (zone of inhibition) ([8]; Natural compound) | Antibiotic activity (zone of inhibition) ([8]; Synthetic compound) | Antibiotic activity (zone of inhibition) (Pythium ultimum 1033; Natural compound) | Antibiotic activity (zone of inhibition) (Pythium ultimum 1033; Synthetic compound) | Antibiotic activity (zone of inhibition) (Escherichia coli HS997; Natural compound) | Antibiotic activity (zone of inhibition) (Escherichia coli HS997; Synthetic compound) | other results
c1ccc2c([C+](c3c[nH]c4ccccc34)c3c[nH]c4ccccc34)c[nH]c2c1 [Turbomycin A, turbomycin A] | + ((+) 2 to 13 mm zone) | + ((+) 2 to 13 mm zone) | − | −^c | + ((+) 2 to 13 mm zone) | + ((+) 2 to 13 mm zone) | − | − | + ((+) 2 to 13 mm zone) | + ((+) 2 to 13 mm zone) | +/− ((+/−) 1 mm zone) | +/− ((+/−) 1 mm zone) | + ((+) 2 to 13 mm zone) | + ((+) 2 to 13 mm zone) | − | − | − | − | +/− ((+/−) 1 mm zone) | +/−^b ((+/−) 1 mm zone) | MIC of natural product compared with synthetic compound (Staphylococcus aureus; natural product, same experiment as synthetic compound, S. aureus): same MIC; minimum inhibitory concentration (MIC) (Staphylococcus aureus; synthetic compound, broth culture, Staphylococcus aureus): 6.2 µg/mL; minimum inhibitory concentration (MIC) (Streptococcus pyogenes): 6.2 µg/mL; minimum inhibitory concentration (MIC) (Salmonella typhimurium): 12.5 µg/mL; minimum inhibitory concentration (MIC) (Erwinia herbicola): 6.2 µg/mL; minimum inhibitory concentration (MIC) (Bacillus subtilis): 6.2 µg/mL; Antibiotic activity (zone of inhibition) ([9]; Natural compound): + ((+) 2 to 13 mm zone); Antibiotic activity (zone of inhibition) ([9]; Synthetic compound): + ((+) 2 to 13 mm zone); Antibiotic activity (zone of inhibition) (Erwinia herbicola IRQ; Natural compound): + ((+) 2 to 13 mm zone); Antibiotic activity (zone of inhibition) (Erwinia herbicola IRQ; Synthetic compound): +^a ((+) 2 to 13 mm zone)
c1ccc([C+](c2c[nH]c3ccccc23)c2c[nH]c3ccccc23)cc1 [Turbomycin B, turbomycin B] | + ((+) 2 to 13 mm zone) | + ((+) 2 to 13 mm zone) | − | − | + ((+) 2 to 13 mm zone) | + ((+) 2 to 13 mm zone) | − | − | + ((+) 2 to 13 mm zone) | + ((+) 2 to 13 mm zone) | +/− ((+/−) 1 mm zone) | +/− ((+/−) 1 mm zone) | + ((+) 2 to 13 mm zone) | + ((+) 2 to 13 mm zone) | − | − | − | − | +/− ((+/−) 1 mm zone) | +/− ((+/−) 1 mm zone) | Antibiotic activity (zone of inhibition) ([9]; Natural compound): + ((+) 2 to 13 mm zone); Antibiotic activity (zone of inhibition) ([9]; Synthetic compound): + ((+) 2 to 13 mm zone); Antibiotic activity (zone of inhibition) (Erwinia herbicola IRQ; Natural compound): + ((+) 2 to 13 mm zone); Antibiotic activity (zone of inhibition) (Erwinia herbicola IRQ; Synthetic compound): + ((+) 2 to 13 mm zone)
